Assay results from ChEMBL document CHEMBL5512649, “Drug development and potential targets for Cushing's syndrome” (Eur J Med Chem, 2024).
Values belong to the molecule of their own block, whether it stands above or below them.

Columns and labels:
[1] = molecular target: Cyclin-dependent kinase 4 (Homo sapiens, UniProt P11802); assay: Inhibition of CDK4 (unknown origin)
[2] = molecular target: Cyclin-dependent kinase 9 (Homo sapiens, UniProt P50750); assay: Inhibition of CDK9 (unknown origin)
[3] = molecular target: Nuclear factor NF-kappa-B complex (Homo sapiens, UniProt P19838+Q00653+Q04206); assay: Inhibition of NF-kappaB (unknown origin); assay type: protein-complex assay
Nuclear factor NF-kappa-B complex, sequence (P19838 1-433 limits assumed): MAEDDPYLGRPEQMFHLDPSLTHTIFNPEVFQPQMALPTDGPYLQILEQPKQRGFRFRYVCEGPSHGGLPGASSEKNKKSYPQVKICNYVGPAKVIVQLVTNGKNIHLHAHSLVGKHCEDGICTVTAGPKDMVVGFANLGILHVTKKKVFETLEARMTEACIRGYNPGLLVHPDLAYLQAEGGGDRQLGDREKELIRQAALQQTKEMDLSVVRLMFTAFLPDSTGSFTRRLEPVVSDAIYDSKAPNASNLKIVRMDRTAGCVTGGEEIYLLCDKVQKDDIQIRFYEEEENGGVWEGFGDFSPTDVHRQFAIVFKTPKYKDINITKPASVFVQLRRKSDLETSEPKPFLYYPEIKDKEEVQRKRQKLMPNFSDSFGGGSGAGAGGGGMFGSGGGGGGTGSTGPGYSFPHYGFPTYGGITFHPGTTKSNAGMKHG
Nuclear factor NF-kappa-B complex, sequence (Q00653 1-454 limits assumed): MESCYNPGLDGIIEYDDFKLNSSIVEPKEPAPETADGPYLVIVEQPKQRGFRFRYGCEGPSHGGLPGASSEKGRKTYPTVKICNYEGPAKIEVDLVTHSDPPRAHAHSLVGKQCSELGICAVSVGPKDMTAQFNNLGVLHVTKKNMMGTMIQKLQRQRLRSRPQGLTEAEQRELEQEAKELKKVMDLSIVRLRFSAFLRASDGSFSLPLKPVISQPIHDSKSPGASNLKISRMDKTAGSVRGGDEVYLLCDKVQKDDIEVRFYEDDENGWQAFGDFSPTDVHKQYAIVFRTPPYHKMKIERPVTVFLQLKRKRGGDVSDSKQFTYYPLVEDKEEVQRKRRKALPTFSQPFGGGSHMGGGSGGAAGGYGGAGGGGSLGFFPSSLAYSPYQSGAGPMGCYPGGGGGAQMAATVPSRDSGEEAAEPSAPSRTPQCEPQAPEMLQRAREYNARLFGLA
Nuclear factor NF-kappa-B complex, sequence (Q04206 whole entry): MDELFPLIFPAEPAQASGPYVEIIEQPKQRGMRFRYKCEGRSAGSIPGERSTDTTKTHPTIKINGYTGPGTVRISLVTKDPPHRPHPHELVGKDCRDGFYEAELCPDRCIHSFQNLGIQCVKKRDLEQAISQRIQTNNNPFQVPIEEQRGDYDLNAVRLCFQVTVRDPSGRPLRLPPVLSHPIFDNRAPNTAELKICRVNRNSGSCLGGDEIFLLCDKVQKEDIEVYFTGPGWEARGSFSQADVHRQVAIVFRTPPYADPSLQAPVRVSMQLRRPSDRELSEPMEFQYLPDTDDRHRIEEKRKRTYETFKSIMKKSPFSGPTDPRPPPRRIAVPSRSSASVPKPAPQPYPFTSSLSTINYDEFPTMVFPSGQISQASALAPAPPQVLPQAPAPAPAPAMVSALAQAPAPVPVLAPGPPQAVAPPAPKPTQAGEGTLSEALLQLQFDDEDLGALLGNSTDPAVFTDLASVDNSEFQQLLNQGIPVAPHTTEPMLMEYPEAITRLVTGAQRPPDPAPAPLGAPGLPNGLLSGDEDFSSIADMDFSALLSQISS

[4] = molecular target: Cyclin-dependent kinase 1 (Homo sapiens, UniProt P06493); assay: Inhibition of CDK1 (unknown origin)
Cyclin-dependent kinase 1, sequence (P06493 whole entry): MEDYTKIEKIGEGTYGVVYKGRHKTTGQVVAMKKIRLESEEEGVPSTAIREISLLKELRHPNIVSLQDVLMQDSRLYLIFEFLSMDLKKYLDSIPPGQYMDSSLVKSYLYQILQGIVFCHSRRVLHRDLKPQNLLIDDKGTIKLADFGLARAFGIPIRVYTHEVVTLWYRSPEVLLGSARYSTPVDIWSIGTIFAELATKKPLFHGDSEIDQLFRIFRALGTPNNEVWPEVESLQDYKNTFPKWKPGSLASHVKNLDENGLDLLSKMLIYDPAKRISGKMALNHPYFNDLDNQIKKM

[5] = molecular target: Cyclin-dependent kinase 6 (Homo sapiens, UniProt Q00534); assay: Inhibition of CDK6 (unknown origin)
Cyclin-dependent kinase 6, sequence (Q00534 whole entry): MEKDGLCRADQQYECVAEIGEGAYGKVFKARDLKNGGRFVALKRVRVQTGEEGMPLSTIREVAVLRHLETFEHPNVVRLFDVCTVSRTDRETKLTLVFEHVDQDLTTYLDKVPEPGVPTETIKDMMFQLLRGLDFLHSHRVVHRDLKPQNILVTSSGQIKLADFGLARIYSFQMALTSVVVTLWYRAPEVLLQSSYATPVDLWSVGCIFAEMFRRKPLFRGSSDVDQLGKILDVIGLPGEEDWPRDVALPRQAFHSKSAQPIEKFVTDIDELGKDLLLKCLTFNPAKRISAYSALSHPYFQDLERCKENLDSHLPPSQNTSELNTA

[6] = molecular target: DNA (cytosine-5)-methyltransferase 1 (Homo sapiens, UniProt P26358); assay: Inhibition of DNMT1 (unknown origin)
DNA (cytosine-5)-methyltransferase 1, sequence (P26358 whole entry): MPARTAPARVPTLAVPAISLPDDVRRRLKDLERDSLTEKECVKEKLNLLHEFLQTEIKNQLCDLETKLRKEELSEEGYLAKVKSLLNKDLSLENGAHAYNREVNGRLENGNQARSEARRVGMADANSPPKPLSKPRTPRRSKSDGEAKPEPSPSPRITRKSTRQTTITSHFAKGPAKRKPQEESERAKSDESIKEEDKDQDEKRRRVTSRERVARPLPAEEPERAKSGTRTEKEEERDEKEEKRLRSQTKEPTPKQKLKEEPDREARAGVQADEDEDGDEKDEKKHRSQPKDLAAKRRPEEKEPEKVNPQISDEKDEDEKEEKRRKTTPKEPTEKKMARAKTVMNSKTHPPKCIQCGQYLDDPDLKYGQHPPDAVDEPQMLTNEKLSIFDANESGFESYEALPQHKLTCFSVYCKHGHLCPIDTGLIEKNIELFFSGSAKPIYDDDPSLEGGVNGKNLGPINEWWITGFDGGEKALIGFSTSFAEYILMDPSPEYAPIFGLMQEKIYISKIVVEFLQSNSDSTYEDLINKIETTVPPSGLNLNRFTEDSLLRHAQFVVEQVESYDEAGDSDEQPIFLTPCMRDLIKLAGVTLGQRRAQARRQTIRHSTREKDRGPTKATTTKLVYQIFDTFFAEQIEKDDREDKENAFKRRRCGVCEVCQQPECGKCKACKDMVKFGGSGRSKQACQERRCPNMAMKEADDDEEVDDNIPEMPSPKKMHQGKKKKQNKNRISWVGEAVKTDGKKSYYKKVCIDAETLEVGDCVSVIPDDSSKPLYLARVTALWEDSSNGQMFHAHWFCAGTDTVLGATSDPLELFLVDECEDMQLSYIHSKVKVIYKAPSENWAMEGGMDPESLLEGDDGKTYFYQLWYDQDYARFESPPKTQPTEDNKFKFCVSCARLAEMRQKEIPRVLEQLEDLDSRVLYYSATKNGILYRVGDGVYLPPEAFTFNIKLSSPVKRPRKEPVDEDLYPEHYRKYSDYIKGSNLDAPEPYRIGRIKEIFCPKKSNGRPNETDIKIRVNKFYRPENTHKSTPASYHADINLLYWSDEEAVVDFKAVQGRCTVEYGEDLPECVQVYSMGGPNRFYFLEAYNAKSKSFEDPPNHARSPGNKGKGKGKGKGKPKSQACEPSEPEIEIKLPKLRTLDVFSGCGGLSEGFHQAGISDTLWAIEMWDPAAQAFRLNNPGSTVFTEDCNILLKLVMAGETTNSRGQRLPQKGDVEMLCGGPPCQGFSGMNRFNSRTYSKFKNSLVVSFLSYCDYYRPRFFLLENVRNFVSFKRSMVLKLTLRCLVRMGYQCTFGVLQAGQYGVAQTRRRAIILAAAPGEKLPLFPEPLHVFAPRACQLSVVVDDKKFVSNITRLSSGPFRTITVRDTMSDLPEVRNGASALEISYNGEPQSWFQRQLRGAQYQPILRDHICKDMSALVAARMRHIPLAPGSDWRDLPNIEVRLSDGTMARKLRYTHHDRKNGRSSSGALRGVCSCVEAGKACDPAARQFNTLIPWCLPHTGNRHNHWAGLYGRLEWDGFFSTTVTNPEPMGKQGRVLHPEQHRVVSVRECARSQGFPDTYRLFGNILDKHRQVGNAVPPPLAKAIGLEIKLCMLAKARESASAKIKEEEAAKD

[7] = molecular target: T1, Histone acetyltransferase type B catalytic subunit (Homo sapiens, UniProt O14929); assay: Inhibition of HAT1 (unknown origin)
T1 sequence (O14929 whole entry): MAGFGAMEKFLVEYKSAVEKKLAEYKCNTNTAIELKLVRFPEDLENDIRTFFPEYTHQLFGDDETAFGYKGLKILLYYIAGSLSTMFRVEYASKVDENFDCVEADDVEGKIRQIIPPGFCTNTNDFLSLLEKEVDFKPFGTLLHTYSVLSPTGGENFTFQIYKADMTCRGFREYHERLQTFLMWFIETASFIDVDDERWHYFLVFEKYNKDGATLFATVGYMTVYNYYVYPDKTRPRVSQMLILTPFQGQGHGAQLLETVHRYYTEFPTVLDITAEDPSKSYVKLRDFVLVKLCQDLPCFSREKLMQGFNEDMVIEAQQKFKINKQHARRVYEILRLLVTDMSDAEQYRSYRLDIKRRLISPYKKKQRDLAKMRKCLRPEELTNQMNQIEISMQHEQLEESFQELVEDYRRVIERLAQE

[8] = molecular target: ATP-dependent translocase ABCB1 (Homo sapiens, UniProt P08183); assay: Inhibition of MDR1 (unknown origin)

Cyclin-dependent kinase 9, sequence (P50750 whole entry): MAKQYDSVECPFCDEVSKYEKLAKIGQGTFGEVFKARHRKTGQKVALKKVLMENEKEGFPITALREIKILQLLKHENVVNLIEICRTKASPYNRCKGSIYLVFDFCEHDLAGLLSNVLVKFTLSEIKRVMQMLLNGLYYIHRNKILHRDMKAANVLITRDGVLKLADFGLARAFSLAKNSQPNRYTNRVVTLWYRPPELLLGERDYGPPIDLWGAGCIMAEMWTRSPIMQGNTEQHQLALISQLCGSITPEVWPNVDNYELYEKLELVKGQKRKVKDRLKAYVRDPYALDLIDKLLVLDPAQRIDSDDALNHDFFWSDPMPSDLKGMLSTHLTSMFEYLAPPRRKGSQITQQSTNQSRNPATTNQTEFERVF
Cyclin-dependent kinase 4, sequence (P11802 whole entry): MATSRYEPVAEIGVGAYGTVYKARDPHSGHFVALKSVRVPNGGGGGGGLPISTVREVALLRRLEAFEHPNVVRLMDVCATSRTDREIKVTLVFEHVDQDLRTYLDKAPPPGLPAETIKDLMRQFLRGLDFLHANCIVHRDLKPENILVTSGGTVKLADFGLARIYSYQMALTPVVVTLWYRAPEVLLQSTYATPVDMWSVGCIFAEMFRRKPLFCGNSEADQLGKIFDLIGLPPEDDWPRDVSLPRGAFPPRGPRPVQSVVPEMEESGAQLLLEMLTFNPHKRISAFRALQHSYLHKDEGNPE

IC50 [1]: 0.4 µM
SMILES: CN1CC[C@@H](c2c(O)cc(O)c3c(=O)cc(-c4ccc(C(F)(F)F)cc4Cl)oc23)[C@@H]1CO [VORUCICLIB]

SMILES: CN1CC[C@H](c2c(OP(=O)(O)O)cc(O)c3c(=O)cc(-c4ccccc4Cl)oc23)[C@H](O)C1 [TP-1287]
IC50 [2]: 0.01 µM

IC50 [3]: ≤ 0.01 µM
SMILES: CC(C)C[C@H](NC(=O)[C@H](Cc1ccccc1)NC(=O)c1cnccn1)B(O)O [BORTEZOMIB]

IC50 [4]: 0.045 µM
SMILES: CNC(=O)c1nn(C)c2c1C(C)(C)Cc1cnc(Nc3ccc(N4CCN(C)CC4)cc3)nc1-2 [MILCICLIB]

IC50 [3]: 10 µM
SMILES: O=C(O)c1cc(/N=N/c2ccc(S(=O)(=O)Nc3ccccn3)cc2)ccc1O [SULFASALAZINE]

SMILES: CC(C)[C@]12O[C@H]1[C@@H]1O[C@]13[C@]1(O[C@H]1C[C@H]1C4=C(CC[C@@]13C)C(=O)OC4)[C@@H]2O [TRIPTOLIDE]
IC50 [3]: 0.01 µM

IC50 [3]: ≤ 2 µM
SMILES: O=C(Oc1ccccc1C(=O)O)c1ccccc1O [SALSALATE]

IC50 [3]: 0.0659 µM
SMILES: C[C@@H]1C[C@H]2[C@@H]3CCC4=CC(=O)C=C[C@]4(C)C3=CC[C@]2(C)[C@@]1(O)C(=O)CO [VAMOROLONE]

IC50 [5]: 0.0024 µM
SMILES: CC(C)c1c2cc(-c3nc(Nc4ccc(N5CCNCC5)cn4)ncc3F)ccc2nn1C [CULMERCICLIB]

IC50 [6]: ≤ 1 µM
IC50 [7]: ≤ 1 µM
IC50 [8]: ≤ 1 µM
SMILES: COc1cc(/C=C/C(=O)CC(=O)/C=C/c2ccc(O)c(OC)c2)ccc1O [CURCUMIN]
